Patent US12558343B2, “Medical use of icaritin” (Lunan Pharmaceutical Group Corporation, priority 2020, dated 2026)
Like-named read-outs stand apart in the source and are kept apart here. Marks after values point to notes of the source that are not given here.

How the values were obtained:
[1] = tested on: platelet aggregation induced by adenosine diphosphate; experiment: In-vitro platelet aggregation in platelet-rich plasma induced by adenosine diphosphate; type: cell-based, domestic rabbits; settings: rabbit PRP, ADP 25 μmol/L, vs 1% dimethyl sulfoxide control
Protocol: After domestic rabbits were locally anesthetized with procaine, common carotid artery was surgically separated, blood was collected and anticoagulated with 3.8% sodium citrate, the anticoagulated blood was centrifuged at 800 r/min for 10 min to prepare platelet-rich plasma (PRP), the remaining part was centrifuged at […] for 10 min to prepare platelet-poor plasma (PPP), and a platelet aggregation experiment was performed. 265 μL of PRP and 30 μL of icaritin were added to a test tube (to enable final concentrations of the icaritin to be 0.1 mmol/L, 0.5 mmol/L, and 5 mmol/L separately), incubation was performed for 5 min, 5 μL of adenosine diphosphate (at a final concentration of 25 μmol/L) was added as an inducer, and a maximum aggregation rate within 5 min was observed and recorded. 1% by mass of dimethyl sulfoxide was used as a control and a promoting effect of the icaritin of each concentration on platelet aggregation induced by adenosine diphosphate was observed.

[2] = tested on: hemorrhagic transformation model induced by clopidogrel combined with cerebral ischemia-reperfusion; experiment: Hemorrhagic transformation after cerebral ischemia-reperfusion (MCAO) caused by clopidogrel, bleeding rate; type: in vivo, ICR mice; settings: for Number of animals with cerebral hemorrhage: 24 h after MCAO; for Bleeding rate %: model group 80.0
Protocol: 5-week-old ICR male mice were fed to 6-week-old and divided into a control group, a model group, an icaritin-3 mg/kg group, an icaritin-6 mg/kg group, an icaritin-12 mg/kg group, and an icariin-12 mg/kg group according to body weight. From day 1 to day 3 after the grouping, the mice in each icaritin group were separately intragastrically administrated with 3, 6, and 12 mg/kg of icaritin and the mice in the icariin group was intragastrically administrated with 12 mg/kg of icariin once a day, and the mice in other groups were intragastrically administrated with a corresponding vehicle; and except the control group, the mice in other groups were intragastrically administrated with aspirin (100 mg/kg) or clopidogrel (15 mg/kg) once a day at a volume of 10 mL/kg.
On day 3, 10 min after the administration, the mice were anesthetized by intraperitoneal injection of 70 mg/kg of pentobarbital sodium and subjected to a cerebral ischemia-reperfusion (middle cerebral artery occlusion, MCAO) surgery with ischemia for 1 h and reperfusion for 23 h.
24 h after the surgery was an end point of the experiment.
Bleeding rate: the mice were anesthetized by intraperitoneal injection of 70 mg/kg of pentobarbital sodium, a brain tissue was taken out, cerebral hemorrhage was recorded and a bleeding rate of the mice in each group was calculated. Cerebral hemorrhage rate %=number of animals with cerebral hemorrhage/number of surviving animals in each group×100.

[3] = tested on: gastrointestinal bleeding caused by aspirin; experiment: Gastrointestinal bleeding caused by aspirin in rats, gastric mucosal bleeding; type: in vivo, SD rats; settings: icaritin 18 mg/kg i.g. with aspirin 500 mg/kg i.g., 24 h
Protocol: After 24 h of the intragastric administration, the rats were anesthetized, sacrificed, and dissected. Bleeding, erosion and ulcers of the gastric mucosa surface of the rats were observed.

[4] = tested on: IX-knockout mice with hemophilia; experiment: Tail-cut bleeding time of coagulation factor IX-knockout mice with hemophilia; type: in vivo
Protocol: One hour after the last administration, the tails of the mice were cut and bleeding time of each mouse was measured.

[5] = tested on: activated partial thromboplastin time; experiment: Activated partial thromboplastin time, rabbit model of acquired hemophilia A; type: in vivo, New Zealand rabbits
Protocol: Twenty-four healthy New Zealand rabbits were selected and randomly divided into a control group, a model group and a treatment group with 8 rabbits in each group. Each rabbit weighed about 1.5 kg. The rabbits were fed in separate stainless steel cages at a room temperature of 18-25° C. The rabbits in each group were given a normal diet without any special treatment. One week later, the rabbit was anesthetized with 2% pentobarbital (1.5 ml/kg) via the marginal ear vein, and the left femoral vein of the rabbit was isolated and exposed for injection. The plasma of patients with acquired hemophilia A (confirmed by the Department of Hematology, Linyi People's Hospital) was intravenously injected into the rabbits in the model group and the treatment group at 2 ml/kg of rabbit body weight. The rabbits in the treatment group were immediately intragastrically administrated with icaritin at 18 mg/kg after the injection was completed and the rabbits in the model group were intragastrically administrated with a same amount of normal saline. The rabbits in the control group were intravenously injected with a same amount of normal human plasma. Blood was drawn from the marginal ear vein 30 min before and 30 min, 60 min, 90 min, and 120 min after the injection of the plasma separately, 3.8% of sodium citrate (1:9) was added for anticoagulation, and the anticoagulated blood was centrifuged at 3,000 r/m to separate plasma.
Referring to the instructions of the kit, 0.1 mL of rabbit plasma was taken, 0.1 mL of a thromboplastin time reagent was added, the materials were mixed, an obtained mixture was subjected to warm bath at 37° C. for 2 min, 0.1 mL of 0.025 M calcium chloride pre-warmed at 37° C. was added, the materials were uniformly mixed, a value of thromboplastin time at each time point was measured by immediately starting a stopwatch, the thromboplastin time at each time point was repeatedly detected twice, and an average value was obtained.

[6] = mouse, in vivo
Protocol: (§1) After the grouping, the mice in the normal group and the model group were intragastrically administrated with 10 ml/kg of an icaritin solvent which was prepared by adding 12 g of hypromellose E5 and 0.1 g of sodium lauryl sulfate into 1 L of water. […] One hour after the last pre-administration, the mice in the model group and each administration group were injected with 150 U/kg of a heparin sodium injection through a tail vein to establish a model, and the mice in the normal group were injected with 10 ml/kg of a sodium chloride injection through a tail vein.
(§2) After the bleeding time was detected, the mice were anesthetized with sodium pentobarbital, blood was collected from an abdominal cardinal vein, and indicators of blood routine examination and four coagulation indicators (prothrombin time, thromboplastin time, thrombin time, and fibrinogen) were detected.

[7] = mouse, in vivo; remark: listed apart in the source
Protocol: as §1, §2

Number of erythrocytes ([6]; 2 mg/kg): 7.109 ± 0.656 10^12/L | Number of leukocytes ([6]; 2 mg/kg): 1.895 ± 0.207 10^9/L | Number of platelets ([6]; 2 mg/kg): 1046 ± 136 10^9/L | Number of erythrocytes ([6]; 6 mg/kg): 7.111 ± 0.634 10^12/L | Number of leukocytes ([6]; 6 mg/kg): 1.934 ± 0.199 10^9/L | Number of platelets ([6]; 6 mg/kg): 1110 ± 128 10^9/L | Number of erythrocytes ([6]; 18 mg/kg): 7.090 ± 0.761 10^12/L | Number of leukocytes ([6]; 18 mg/kg): 1.888 ± 0.223 10^9/L | Number of platelets ([6]; 18 mg/kg): 1059 ± 170 10^9/L | Fibrinogen ([7]; 2 mg/kg): 1.83 ± 0.22 g/L | Prothrombin time ([7]; 2 mg/kg): 10.12 ± 1.34 s | Thrombin time ([7]; 2 mg/kg): 22.23 ± 2.01 s | Thromboplastin time ([7]; 2 mg/kg): 25.19 ± 1.90 s | Fibrinogen ([7]; 6 mg/kg): 1.82 ± 0.56 g/L | Prothrombin time ([7]; 6 mg/kg): 11.23 ± 1.45 s | Thrombin time ([7]; 6 mg/kg): 24.09 ± 1.99 s | Thromboplastin time ([7]; 6 mg/kg): 25.09 ± 2.22 s | Fibrinogen ([7]; 18 mg/kg): 2.01 ± 0.52 g/L | Prothrombin time ([7]; 18 mg/kg): 9.98 ± 1.23 s | Thrombin time ([7]; 18 mg/kg): 25.54 ± 1.78 s | Thromboplastin time ([7]; 18 mg/kg): 24.55 ± 2.66 s
Structure (SMILES): COc1ccc(-c2oc3c(CC=C(C)C)c(O)cc(O)c3c(=O)c2O)cc1 [Icaritin]
Aggregation-promoting rate ([1]; 0.1 mmol/L): 23.3 ± 4.5% | Aggregation-promoting rate ([1]; 0.5 mmol/L): 38.9 ± 8.7% | Aggregation-promoting rate ([1]; 5 mmol/L): 52.2 ± 9.0% | Number of animals with cerebral hemorrhage ([2]; 3 mg/kg i.g. Day 1-3 with clopidogrel 15 mg/kg, of 7 animals): 3 | Bleeding rate % ([2]; 3 mg/kg i.g. Day 1-3 with clopidogrel 15 mg/kg): 42.9% | Number of animals with cerebral hemorrhage ([2]; 6 mg/kg i.g. Day 1-3 with clopidogrel 15 mg/kg, of 8 animals): 2 | Bleeding rate % ([2]; 6 mg/kg i.g. Day 1-3 with clopidogrel 15 mg/kg): 25.0% | Number of animals with cerebral hemorrhage ([2]; 12 mg/kg i.g. Day 1-3 with clopidogrel 15 mg/kg, of 8 (icaritin) or 7 (icariin) animals): 2 | Bleeding rate % ([2]; 12 mg/kg i.g. Day 1-3 with clopidogrel 15 mg/kg): 25.0% | Bleeding rate ([3]; model group 66.7): 16.7^## % | Number of bleeding animals ([3]; of 12 rats): 2 | Bleeding time ([4]; group B, 3 mg/kg i.g. once a day 11 days, 1 h after last administration, control 37.8 ± 12.4): 25.5 ± 8.9 min | Bleeding time ([4]; group C, 6 mg/kg i.g. once a day 11 days): 20.4 ± 6.9 min | Bleeding time ([4]; group D, 18 mg/kg i.g. once a day 11 days): 16.5 ± 9.7 min | Thromboplastin time ([5]; icaritin 18 mg/kg i.g. after plasma injection, 30 min after injection): 40.4 ± 3.23^$ | Thromboplastin time ([5]; icaritin 18 mg/kg i.g., 60 min after injection): 39.9 ± 4.09$ $ | Thromboplastin time ([5]; icaritin 18 mg/kg i.g., 90 min after injection): 40.4 ± 5.67$ $ | Thromboplastin time ([5]; icaritin 18 mg/kg i.g., 120 min after injection): 41.3 ± 6.21^$ $ | Thromboplastin time ([5]; treatment group, 30 min before injection of patient plasma (before icaritin)): 36.8 ± 4.12
